Test results as given in PubChem BioAssay (NCI).
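Grown in 96-well plates, cells were treated for 48 hours with each compound at five concentrations. Insufficient inhibition: endpoint recorded as highest concentration tested. GI50 = concentration required for 50% inhibition of growth. TGI is the concentration that stops growth completely.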

Columns and labels:
Test in all cases: NCI anticancer screen, dose series, 48 h
SF-539 CNS = tested on: SF-539 CNS
RPMI-8226 leukemia = tested on: RPMI-8226 leukemia
MOLT-4 leukemia = tested on: MOLT-4 leukemia
UACC-257 melanoma = tested on: UACC-257 melanoma
SK-MEL-28 melanoma = tested on: SK-MEL-28 melanoma
M14 melanoma = tested on: M14 melanoma
PC-3 prostate = tested on: PC-3 prostate
U251 CNS = tested on: U251 CNS
HS 578T breast = tested on: HS 578T breast
SR leukemia = tested on: SR leukemia
OVCAR-4 ovarian = tested on: OVCAR-4 ovarian
SN12C renal = tested on: SN12C renal
T-47D breast = tested on: T-47D breast
HOP-62 NSCLC = tested on: HOP-62 NSCLC
MCF7 breast = tested on: MCF7 breast
NCI-H23 lung = tested on: NCI-H23 lung
RXF 393 renal = tested on: RXF 393 renal
SF-295 CNS = tested on: SF-295 CNS
SNB-75 CNS = tested on: SNB-75 CNS
NCI/ADR-RES ovarian = tested on: NCI/ADR-RES ovarian
LOX IMVI melanoma = tested on: LOX IMVI melanoma
TK-10 renal = tested on: TK-10 renal
UO-31 renal = tested on: UO-31 renal
SW-620 colon = tested on: SW-620 colon
CCRF-CEM leukemia = tested on: CCRF-CEM leukemia
786-0 renal = tested on: 786-0 renal
OVCAR-3 ovarian = tested on: OVCAR-3 ovarian
NCI-H226 lung = tested on: NCI-H226 lung
K-562 leukemia = tested on: K-562 leukemia
SK-MEL-5 melanoma = tested on: SK-MEL-5 melanoma
BT-549 breast = tested on: BT-549 breast
NCI-H460 lung = tested on: NCI-H460 lung
HCC-2998 colon = tested on: HCC-2998 colon
SK-MEL-2 melanoma = tested on: SK-MEL-2 melanoma
MDA-MB-231 breast = tested on: MDA-MB-231 breast
SF-268 CNS = tested on: SF-268 CNS
KM12 colon = tested on: KM12 colon
MALME-3M melanoma = tested on: MALME-3M melanoma
DU-145 prostate = tested on: DU-145 prostate
ACHN renal = tested on: ACHN renal
OVCAR-5 ovarian = tested on: OVCAR-5 ovarian
OVCAR-8 ovarian = tested on: OVCAR-8 ovarian
A549 NSCLC = tested on: A549 NSCLC
HCT-116 colon = tested on: HCT-116 colon
UACC-62 melanoma = tested on: UACC-62 melanoma
SNB-19 CNS = tested on: SNB-19 CNS
COLO 205 colon = tested on: COLO 205 colon
NCI-H522 lung = tested on: NCI-H522 lung
A498 renal = tested on: A498 renal
HOP-92 NSCLC = tested on: HOP-92 NSCLC
HCT-15 colon = tested on: HCT-15 colon
SK-OV-3 ovarian = tested on: SK-OV-3 ovarian
HT29 colon = tested on: HT29 colon
HL-60(TB) leukemia = tested on: HL-60(TB) leukemia
MDA-MB-435 = tested on: MDA-MB-435
IGROV1 ovarian = tested on: IGROV1 ovarian
CAKI-1 renal = tested on: CAKI-1 renal

`Fc1ccc(-c2c(-c3ccncc3)[nH]c3nccnc23)cc1` showed a GI50 (SF-539 CNS) of 9.94 µM, a TGI (SF-539 CNS) of over 25 µM and a GI50 (RPMI-8226 leukemia) of over 25 µM. It also gave a TGI (RPMI-8226 leukemia) of over 25 µM, a GI50 (MOLT-4 leukemia) of over 25 µM and a TGI (MOLT-4 leukemia) of over 25 µM. The GI50 (UACC-257 melanoma) was over 20 µM, the TGI (UACC-257 melanoma) was over 25 µM and the GI50 (SK-MEL-28 melanoma) was 16.2 µM. For the same compound, the TGI (SK-MEL-28 melanoma) was over 25 µM, the GI50 (M14 melanoma) was over 18.7 µM and the TGI (M14 melanoma) was over 25 µM. The GI50 (PC-3 prostate) was over 25 µM, the TGI (PC-3 prostate) was over 25 µM and the GI50 (U251 CNS) was 12.5 µM. For the same compound, the TGI (U251 CNS) was over 25 µM, the GI50 (HS 578T breast) was 8.03 µM and the TGI (HS 578T breast) was over 25 µM. For the same compound, the GI50 (SR leukemia) was 8.79 µM, the TGI (SR leukemia) was over 25 µM and the GI50 (OVCAR-4 ovarian) was over 16.7 µM. For the same compound, the TGI (OVCAR-4 ovarian) was over 25 µM, the GI50 (SN12C renal) was 7.84 µM and the TGI (SN12C renal) was over 25 µM. For the same compound, the GI50 (T-47D breast) was 7.09 µM, the TGI (T-47D breast) was over 25 µM and the GI50 (HOP-62 NSCLC) was over 15.3 µM. For the same compound, the TGI (HOP-62 NSCLC) was over 25 µM, the GI50 (MCF7 breast) was 7.39 µM and the TGI (MCF7 breast) was over 25 µM. For the same compound, the GI50 (NCI-H23 lung) was over 17.4 µM, the TGI (NCI-H23 lung) was over 25 µM and the GI50 (RXF 393 renal) was 3.69 µM. The TGI (RXF 393 renal) was 9.8 µM, the GI50 (SF-295 CNS) was over 15.1 µM and the TGI (SF-295 CNS) was over 25 µM. The GI50 (SNB-75 CNS) was 2.66 µM, the TGI (SNB-75 CNS) was over 25 µM and the GI50 (NCI/ADR-RES ovarian) was 16.1 µM. For the same compound, the TGI (NCI/ADR-RES ovarian) was over 25 µM, the GI50 (LOX IMVI melanoma) was 11.1 µM and the TGI (LOX IMVI melanoma) was over 25 µM. It also gave a GI50 (TK-10 renal) of 5.94 µM, a TGI (TK-10 renal) of over 21.6 µM and a GI50 (UO-31 renal) of 3.43 µM. It also gave a TGI (UO-31 renal) of over 25 µM, a GI50 (SW-620 colon) of 13.6 µM and a TGI (SW-620 colon) of over 25 µM. For the same compound, the GI50 (CCRF-CEM leukemia) was 24.6 µM, the TGI (CCRF-CEM leukemia) was over 25 µM and the GI50 (786-0 renal) was 11.3 µM. It also gave a TGI (786-0 renal) of over 25 µM, a GI50 (OVCAR-3 ovarian) of 10.3 µM and a TGI (OVCAR-3 ovarian) of over 25 µM. For the same compound, the GI50 (NCI-H226 lung) was 6.76 µM, the TGI (NCI-H226 lung) was over 25 µM and the GI50 (K-562 leukemia) was over 25 µM. It also gave a TGI (K-562 leukemia) of over 25 µM, a GI50 (SK-MEL-5 melanoma) of 11 µM and a TGI (SK-MEL-5 melanoma) of over 25 µM. The GI50 (BT-549 breast) was over 15.2 µM, the TGI (BT-549 breast) was over 25 µM and the GI50 (NCI-H460 lung) was 7.11 µM. For the same compound, the TGI (NCI-H460 lung) was over 21.3 µM, the GI50 (HCC-2998 colon) was 12 µM and the TGI (HCC-2998 colon) was over 25 µM. It also gave a GI50 (SK-MEL-2 melanoma) of 13.6 µM, a TGI (SK-MEL-2 melanoma) of over 25 µM and a GI50 (MDA-MB-231 breast) of over 14.4 µM. The TGI (MDA-MB-231 breast) was over 25 µM, the GI50 (SF-268 CNS) was 10.9 µM and the TGI (SF-268 CNS) was over 25 µM. For the same compound, the GI50 (KM12 colon) was 8.92 µM, the TGI (KM12 colon) was over 25 µM and the GI50 (MALME-3M melanoma) was over 9.39 µM. For the same compound, the TGI (MALME-3M melanoma) was over 17.4 µM, the GI50 (DU-145 prostate) was 7.32 µM and the TGI (DU-145 prostate) was over 22 µM. For the same compound, the GI50 (ACHN renal) was 3.05 µM, the TGI (ACHN renal) was over 25 µM and the GI50 (OVCAR-5 ovarian) was 11.2 µM. It also gave a TGI (OVCAR-5 ovarian) of over 25 µM, a GI50 (OVCAR-8 ovarian) of 10.4 µM and a TGI (OVCAR-8 ovarian) of over 25 µM. The GI50 (A549 NSCLC) was 7.35 µM, the TGI (A549 NSCLC) was over 25 µM and the GI50 (HCT-116 colon) was 6.39 µM. The TGI (HCT-116 colon) was over 22.1 µM, the GI50 (UACC-62 melanoma) was 6.33 µM and the TGI (UACC-62 melanoma) was over 25 µM. It also gave a GI50 (SNB-19 CNS) of over 20.3 µM, a TGI (SNB-19 CNS) of over 25 µM and a GI50 (COLO 205 colon) of 5.86 µM. It also gave a TGI (COLO 205 colon) of over 25 µM, a GI50 (NCI-H522 lung) of over 11.1 µM and a TGI (NCI-H522 lung) of over 21.6 µM. The GI50 (A498 renal) was 4.76 µM, the TGI (A498 renal) was over 23.2 µM and the GI50 (HOP-92 NSCLC) was over 25 µM. It also gave a TGI (HOP-92 NSCLC) of over 25 µM, a GI50 (HCT-15 colon) of 8.28 µM and a TGI (HCT-15 colon) of over 25 µM. For the same compound, the GI50 (SK-OV-3 ovarian) was 8.25 µM, the TGI (SK-OV-3 ovarian) was over 25 µM and the GI50 (HT29 colon) was 6.41 µM. The TGI (HT29 colon) was over 25 µM, the GI50 (HL-60(TB) leukemia) was 16.3 µM and the TGI (HL-60(TB) leukemia) was over 25 µM. It also gave a GI50 (MDA-MB-435) of 11.6 µM, a TGI (MDA-MB-435) of over 25 µM and a GI50 (IGROV1 ovarian) of 16.2 µM. The TGI (IGROV1 ovarian) was over 25 µM, the GI50 (CAKI-1 renal) was 4.52 µM and the TGI (CAKI-1 renal) was over 19.9 µM.
